Legend:
[1] = molecular target: Serine/threonine-protein kinase pim-3 (Homo sapiens) (UniProt Q86V86); details: dose 10.0 µM
[2] = molecular target: BMP-2-inducible protein kinase (Homo sapiens) (UniProt Q9NSY1); details: dose 10.0 µM
[3] = molecular target: Myotonin-protein kinase (Homo sapiens) (UniProt Q09013); details: dose 10.0 µM
[4] = molecular target: T1, Dual specificity protein kinase CLK3 (Homo sapiens, UniProt P49761); details: dose 10.0 µM
[5] = molecular target: Calcium/calmodulin-dependent protein kinase kinase 2 (Homo sapiens) (UniProt Q96RR4); details: dose 10.0 µM
[6] = molecular target: Serine/threonine-protein kinase haspin (Homo sapiens) (UniProt Q8TF76); details: dose 10.0 µM
[7] = molecular target: Dual specificity protein kinase CLK2 (Homo sapiens, UniProt P49760)
[8] = molecular target: Aurora kinase A (Homo sapiens) (UniProt O14965); details: dose 10.0 µM
[9] = molecular target: Dual specificity tyrosine-phosphorylation-regulated kinase 2 (Homo sapiens) (UniProt Q92630); details: dose 10.0 µM
[10] = molecular target: T2, Casein kinase I isoform epsilon (Homo sapiens, UniProt P49674); details: dose 10.0 µM
Target sequence in this assay (P49674 whole entry, looked up, canonical isoform): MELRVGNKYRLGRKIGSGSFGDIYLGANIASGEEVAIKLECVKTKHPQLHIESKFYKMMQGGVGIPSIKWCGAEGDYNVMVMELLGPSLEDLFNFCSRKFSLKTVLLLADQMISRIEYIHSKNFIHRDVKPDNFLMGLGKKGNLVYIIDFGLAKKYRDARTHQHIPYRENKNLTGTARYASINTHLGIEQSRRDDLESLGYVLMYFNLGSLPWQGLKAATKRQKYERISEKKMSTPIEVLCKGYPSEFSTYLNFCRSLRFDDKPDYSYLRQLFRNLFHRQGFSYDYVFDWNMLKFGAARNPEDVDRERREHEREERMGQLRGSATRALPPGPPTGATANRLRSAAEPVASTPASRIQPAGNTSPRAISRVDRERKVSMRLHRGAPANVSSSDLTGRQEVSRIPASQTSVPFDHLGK

[11] = molecular target: Casein kinase I isoform delta (Homo sapiens) (UniProt P48730); details: dose 10.0 µM
[12] = molecular target: Dual specificity protein kinase CLK1 (Homo sapiens, UniProt P49759); type: cell-based, Sf9
[13] = molecular target: T3, Dual specificity tyrosine-phosphorylation-regulated kinase 2 (Homo sapiens, UniProt Q92630)
T3 sequence (Q92630 whole entry): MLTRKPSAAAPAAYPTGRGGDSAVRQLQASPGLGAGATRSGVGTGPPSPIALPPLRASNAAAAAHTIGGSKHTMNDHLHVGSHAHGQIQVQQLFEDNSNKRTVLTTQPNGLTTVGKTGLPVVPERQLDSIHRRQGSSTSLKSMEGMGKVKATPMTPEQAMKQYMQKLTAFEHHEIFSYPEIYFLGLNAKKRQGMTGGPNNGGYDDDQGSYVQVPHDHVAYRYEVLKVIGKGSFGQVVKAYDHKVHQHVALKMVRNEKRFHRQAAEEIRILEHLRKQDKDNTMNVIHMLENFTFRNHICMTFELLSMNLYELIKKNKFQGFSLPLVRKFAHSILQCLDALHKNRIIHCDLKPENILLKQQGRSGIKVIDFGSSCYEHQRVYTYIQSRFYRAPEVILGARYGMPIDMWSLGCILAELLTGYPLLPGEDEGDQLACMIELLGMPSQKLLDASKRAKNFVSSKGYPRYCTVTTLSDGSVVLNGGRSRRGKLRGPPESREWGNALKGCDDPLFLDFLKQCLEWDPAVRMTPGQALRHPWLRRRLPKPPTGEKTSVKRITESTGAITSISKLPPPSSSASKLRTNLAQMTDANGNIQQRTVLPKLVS

[14] = molecular target: T2, Casein kinase I isoform epsilon
Target sequence in this assay (P49674 whole entry, canonical isoform): as the sequence (P49674 whole entry, looked up, canonical isoform) above

[15] = molecular target: Casein kinase II subunit alpha (Homo sapiens) (UniProt P68400); details: dose 10.0 µM
[16] = molecular target: Cyclin-dependent kinase 5/CDK5 activator 1 (Homo sapiens, UniProt Q00535); type: cell-based, Sf9
[17] = molecular target: T4, Dual specificity tyrosine-phosphorylation-regulated kinase 1A (Homo sapiens, UniProt Q13627); details: dose 10.0 µM
[18] = molecular target: T5, Mitogen-activated protein kinase 15 (Homo sapiens) (UniProt Q8TD08); details: dose 10.0 µM
T5 sequence (whole entry): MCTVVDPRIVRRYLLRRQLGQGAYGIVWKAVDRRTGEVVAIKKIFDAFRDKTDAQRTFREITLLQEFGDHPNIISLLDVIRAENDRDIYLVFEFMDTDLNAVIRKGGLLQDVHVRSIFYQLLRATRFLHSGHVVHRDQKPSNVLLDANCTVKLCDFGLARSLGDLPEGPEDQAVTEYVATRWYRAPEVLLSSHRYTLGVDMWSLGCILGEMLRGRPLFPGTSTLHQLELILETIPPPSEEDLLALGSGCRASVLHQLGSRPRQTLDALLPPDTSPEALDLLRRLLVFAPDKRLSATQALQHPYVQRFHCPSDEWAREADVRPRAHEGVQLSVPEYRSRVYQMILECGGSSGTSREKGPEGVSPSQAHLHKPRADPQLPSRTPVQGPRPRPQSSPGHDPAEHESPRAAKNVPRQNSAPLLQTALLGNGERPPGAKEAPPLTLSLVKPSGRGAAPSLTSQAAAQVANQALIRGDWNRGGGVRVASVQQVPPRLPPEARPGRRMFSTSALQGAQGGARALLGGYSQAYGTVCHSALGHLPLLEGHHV

[19] = molecular target: T4, Dual specificity tyrosine-phosphorylation-regulated kinase 1A
[20] = molecular target: T6, Dual specificity tyrosine-phosphorylation-regulated kinase 4 (Homo sapiens, UniProt Q9NR20)
T6 sequence (Q9NR20 whole entry): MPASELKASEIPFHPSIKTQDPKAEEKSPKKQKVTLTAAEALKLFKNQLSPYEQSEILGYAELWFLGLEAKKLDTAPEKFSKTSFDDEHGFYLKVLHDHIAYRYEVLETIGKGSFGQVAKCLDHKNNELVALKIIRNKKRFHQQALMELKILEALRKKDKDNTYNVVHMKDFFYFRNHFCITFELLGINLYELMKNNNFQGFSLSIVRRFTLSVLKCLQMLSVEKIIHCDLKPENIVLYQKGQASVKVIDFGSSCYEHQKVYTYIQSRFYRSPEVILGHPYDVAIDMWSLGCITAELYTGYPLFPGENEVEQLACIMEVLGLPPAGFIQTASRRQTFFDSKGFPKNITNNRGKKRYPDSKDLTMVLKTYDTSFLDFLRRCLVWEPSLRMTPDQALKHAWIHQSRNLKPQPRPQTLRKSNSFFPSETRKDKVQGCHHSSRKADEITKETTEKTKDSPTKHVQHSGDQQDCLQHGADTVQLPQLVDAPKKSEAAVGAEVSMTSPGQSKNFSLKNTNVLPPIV

[21] = molecular target: AP2-associated protein kinase 1 (Homo sapiens) (UniProt Q2M2I8); details: dose 10.0 µM
[22] = molecular target: T1, Dual specificity protein kinase CLK3; type: cell-based, Sf9
[23] = molecular target: Homeodomain-interacting protein kinase 2 (Homo sapiens) (UniProt Q9H2X6); details: dose 10.0 µM

Chain of BMP-2-inducible protein kinase (Homo sapiens) (Q9NSY1 whole entry, looked up): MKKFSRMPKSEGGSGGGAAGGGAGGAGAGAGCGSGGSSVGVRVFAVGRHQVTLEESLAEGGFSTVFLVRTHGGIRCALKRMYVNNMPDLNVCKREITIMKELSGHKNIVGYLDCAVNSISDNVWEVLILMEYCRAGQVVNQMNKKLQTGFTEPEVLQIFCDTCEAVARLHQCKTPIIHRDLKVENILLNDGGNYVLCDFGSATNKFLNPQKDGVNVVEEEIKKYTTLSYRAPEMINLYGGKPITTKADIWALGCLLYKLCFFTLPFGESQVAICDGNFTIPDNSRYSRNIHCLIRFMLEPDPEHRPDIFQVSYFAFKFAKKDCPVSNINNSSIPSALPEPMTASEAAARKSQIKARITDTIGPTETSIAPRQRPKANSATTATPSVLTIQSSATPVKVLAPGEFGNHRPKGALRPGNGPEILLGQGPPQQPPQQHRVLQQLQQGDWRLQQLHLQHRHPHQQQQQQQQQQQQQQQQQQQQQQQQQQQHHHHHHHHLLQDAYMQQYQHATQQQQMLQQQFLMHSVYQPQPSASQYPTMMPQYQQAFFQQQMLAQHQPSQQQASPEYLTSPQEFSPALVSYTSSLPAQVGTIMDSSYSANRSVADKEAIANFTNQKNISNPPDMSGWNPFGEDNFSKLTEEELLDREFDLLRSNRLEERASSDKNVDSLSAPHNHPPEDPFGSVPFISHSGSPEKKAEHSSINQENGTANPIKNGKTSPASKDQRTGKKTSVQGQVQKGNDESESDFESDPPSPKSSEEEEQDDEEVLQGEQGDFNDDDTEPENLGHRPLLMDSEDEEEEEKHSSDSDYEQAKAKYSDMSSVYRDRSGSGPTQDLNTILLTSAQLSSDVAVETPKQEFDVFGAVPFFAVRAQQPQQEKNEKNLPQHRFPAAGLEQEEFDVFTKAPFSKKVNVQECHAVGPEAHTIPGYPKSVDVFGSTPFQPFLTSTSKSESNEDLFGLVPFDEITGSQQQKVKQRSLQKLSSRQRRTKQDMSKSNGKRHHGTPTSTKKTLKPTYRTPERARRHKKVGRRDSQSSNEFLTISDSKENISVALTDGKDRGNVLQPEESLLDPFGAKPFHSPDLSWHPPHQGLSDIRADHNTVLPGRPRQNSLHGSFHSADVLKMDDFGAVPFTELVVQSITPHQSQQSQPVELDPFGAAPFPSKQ
Chain of Calcium/calmodulin-dependent protein kinase kinase 2 (Homo sapiens) (Q96RR4 2-588 limits assumed): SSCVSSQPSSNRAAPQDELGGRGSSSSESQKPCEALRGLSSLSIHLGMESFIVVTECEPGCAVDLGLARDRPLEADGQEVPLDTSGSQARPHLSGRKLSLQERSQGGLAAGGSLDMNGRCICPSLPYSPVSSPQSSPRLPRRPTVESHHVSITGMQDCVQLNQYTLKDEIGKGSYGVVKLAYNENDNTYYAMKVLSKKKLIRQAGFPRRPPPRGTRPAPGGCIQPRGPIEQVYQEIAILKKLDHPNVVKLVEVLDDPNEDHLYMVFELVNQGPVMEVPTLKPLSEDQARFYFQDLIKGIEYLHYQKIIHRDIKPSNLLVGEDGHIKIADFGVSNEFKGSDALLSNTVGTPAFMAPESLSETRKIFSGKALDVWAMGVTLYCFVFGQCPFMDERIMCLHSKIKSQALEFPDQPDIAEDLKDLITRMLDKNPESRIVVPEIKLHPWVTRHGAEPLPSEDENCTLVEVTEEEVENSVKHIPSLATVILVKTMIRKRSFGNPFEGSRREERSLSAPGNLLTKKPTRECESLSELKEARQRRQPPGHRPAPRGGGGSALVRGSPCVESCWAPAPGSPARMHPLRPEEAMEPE
Chain of AP2-associated protein kinase 1 (Homo sapiens) (Q2M2I8 whole entry, looked up): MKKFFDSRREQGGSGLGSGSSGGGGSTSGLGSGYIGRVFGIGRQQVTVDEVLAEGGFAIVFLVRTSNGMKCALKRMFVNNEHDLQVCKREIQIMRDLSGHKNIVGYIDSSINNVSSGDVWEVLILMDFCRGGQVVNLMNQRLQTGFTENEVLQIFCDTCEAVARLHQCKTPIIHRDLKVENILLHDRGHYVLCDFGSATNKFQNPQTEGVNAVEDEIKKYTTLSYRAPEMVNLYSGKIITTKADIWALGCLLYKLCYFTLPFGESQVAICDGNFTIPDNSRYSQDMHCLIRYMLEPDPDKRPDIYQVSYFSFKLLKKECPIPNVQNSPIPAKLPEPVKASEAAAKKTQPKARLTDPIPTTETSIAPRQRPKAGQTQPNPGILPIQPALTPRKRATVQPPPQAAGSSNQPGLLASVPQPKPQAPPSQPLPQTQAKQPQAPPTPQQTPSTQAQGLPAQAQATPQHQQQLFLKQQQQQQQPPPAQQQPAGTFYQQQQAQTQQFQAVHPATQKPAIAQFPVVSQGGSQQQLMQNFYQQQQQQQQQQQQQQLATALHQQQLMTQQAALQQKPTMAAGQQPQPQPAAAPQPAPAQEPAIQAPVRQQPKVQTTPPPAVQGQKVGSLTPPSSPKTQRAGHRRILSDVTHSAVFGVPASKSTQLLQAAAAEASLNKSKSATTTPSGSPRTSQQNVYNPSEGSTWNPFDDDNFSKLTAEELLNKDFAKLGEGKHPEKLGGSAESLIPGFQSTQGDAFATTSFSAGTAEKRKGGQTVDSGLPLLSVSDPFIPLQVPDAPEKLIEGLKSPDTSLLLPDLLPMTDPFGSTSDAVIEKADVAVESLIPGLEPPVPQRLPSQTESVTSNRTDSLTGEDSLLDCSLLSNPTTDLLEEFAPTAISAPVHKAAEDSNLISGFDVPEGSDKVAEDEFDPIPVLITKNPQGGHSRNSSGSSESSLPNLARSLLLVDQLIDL
Chain of Casein kinase I isoform delta (Homo sapiens) (P48730 whole entry, looked up, canonical isoform): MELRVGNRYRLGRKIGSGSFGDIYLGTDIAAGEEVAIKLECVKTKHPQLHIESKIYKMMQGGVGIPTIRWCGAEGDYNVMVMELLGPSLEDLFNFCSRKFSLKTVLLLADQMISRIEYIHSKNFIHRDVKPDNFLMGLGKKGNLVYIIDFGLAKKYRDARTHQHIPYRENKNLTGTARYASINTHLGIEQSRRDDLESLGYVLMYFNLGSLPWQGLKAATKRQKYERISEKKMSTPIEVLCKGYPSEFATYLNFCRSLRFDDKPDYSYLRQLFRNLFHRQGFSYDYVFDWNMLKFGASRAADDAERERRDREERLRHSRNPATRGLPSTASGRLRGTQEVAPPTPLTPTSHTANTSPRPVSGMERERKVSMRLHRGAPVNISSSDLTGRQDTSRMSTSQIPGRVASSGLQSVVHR
Chain of Cyclin-dependent kinase 5/CDK5 activator 1 (Q00535 whole entry): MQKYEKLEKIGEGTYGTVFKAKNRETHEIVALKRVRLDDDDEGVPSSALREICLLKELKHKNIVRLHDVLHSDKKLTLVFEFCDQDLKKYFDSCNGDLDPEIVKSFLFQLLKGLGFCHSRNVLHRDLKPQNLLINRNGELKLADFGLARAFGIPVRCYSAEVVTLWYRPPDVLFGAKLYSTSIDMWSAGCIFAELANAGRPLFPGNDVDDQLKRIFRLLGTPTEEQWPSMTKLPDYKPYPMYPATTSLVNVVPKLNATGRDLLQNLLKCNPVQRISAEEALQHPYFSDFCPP
Chain of Cyclin-dependent kinase 5/CDK5 activator 1 (Q15078 whole entry, further chain): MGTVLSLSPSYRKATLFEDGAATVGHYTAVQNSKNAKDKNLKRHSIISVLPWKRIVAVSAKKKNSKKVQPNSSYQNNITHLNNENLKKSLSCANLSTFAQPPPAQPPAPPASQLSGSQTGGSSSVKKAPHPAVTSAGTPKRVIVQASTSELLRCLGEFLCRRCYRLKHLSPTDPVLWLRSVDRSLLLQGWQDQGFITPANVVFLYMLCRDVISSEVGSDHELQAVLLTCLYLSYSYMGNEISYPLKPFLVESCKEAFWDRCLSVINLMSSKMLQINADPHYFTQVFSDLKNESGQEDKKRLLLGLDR
Chain of Aurora kinase A (Homo sapiens) (O14965 whole entry): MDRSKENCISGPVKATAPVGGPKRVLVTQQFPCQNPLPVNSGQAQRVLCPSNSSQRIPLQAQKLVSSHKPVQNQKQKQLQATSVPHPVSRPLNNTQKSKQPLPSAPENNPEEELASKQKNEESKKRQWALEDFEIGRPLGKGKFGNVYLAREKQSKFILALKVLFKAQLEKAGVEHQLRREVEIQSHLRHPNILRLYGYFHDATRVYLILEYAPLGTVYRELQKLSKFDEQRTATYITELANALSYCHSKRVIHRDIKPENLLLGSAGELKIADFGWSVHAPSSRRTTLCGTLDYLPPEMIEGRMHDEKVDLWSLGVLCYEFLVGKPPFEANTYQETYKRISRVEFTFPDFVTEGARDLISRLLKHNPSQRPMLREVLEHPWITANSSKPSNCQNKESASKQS

- ΔTm [1]: 1 °C
- ΔTm [2]: -0.1 °C
- ΔTm [3]: 0.1 °C
- ΔTm [4]: -0.5 °C
- ΔTm [5]: -0.5 °C
- ΔTm [6]: -0.1 °C
- IC50 [7]: 8.34 µM
- ΔTm [8]: -0.4 °C
- ΔTm [9]: 0 °C
- ΔTm [10]: -2.5 °C
- ΔTm [11]: 1.4 °C
- IC50 [12]: 8.96 µM
- IC50 [13]: > 10 µM
- IC50 [14]: > 10 µM
- ΔTm [15]: 0.3 °C
- IC50 [16]: > 10 µM
- ΔTm [17]: 3.2 °C
- IC50 [19]: 3.4 µM
- IC50 [20]: > 10 µM
- ΔTm [21]: 0 °C
- IC50 [22]: > 10 µM
- ΔTm [23]: -0.4 °C
SMILES: O=C1NC(NC23CC4CC(CC(C4)C2)C3)=N/C1=C\c1ccc2scnc2c1
- ΔTm [18]: -0.2 °C

Source: ChEMBL document CHEMBL5360622, “Leucettinibs, a Class of DYRK/CLK Kinase Inhibitors Inspired by the Marine Sponge Natural Product Leucettamine B” (J Med Chem, 2023)
